From paper PMC6838683, “Discovery of Human Signaling Systems: Pairing Peptides to G Protein-Coupled Receptors” (Cell, 2019)
Positions of bridges follow the written chain, without caps; N, C: chain ends. Residues, ends and D or L forms follow the SMILES beside them.

Columns and labels:
HA-OGR1 (GPR68) = target: T1, HA-OGR1 (GPR68) (Homo sapiens, UniProt Q15743); assay: Ca2+ mobilization assay (Fluo-4); type: cell-based; conditions: GPR68, calcium mobilization, mean, SEM and n (3-5) in separate columns
T1 construct: HA; expressed in transfected cells
Method: Peptide-dependent Ca^2+ mobilization responses were measured in HEK293 stable cell lines (HA-OGR1 (GPR68) and vector pcDNA) ([Saxena et al., 2012]) that were seeded in 96-well plates (1 × 10^5 cells/well) and cultured at 37°C with 5% CO2 to near confluence in DMEM with 10% FBS (Corning). Six hours prior to assay, medium was changed to pH 8.0 or pH 7.4 HAM’s F12 Nutrient Mixture (GIBCO) without FBS and transferred to a 37°C incubator without CO2. One hour prior to stimulation, cells were incubated in pH 8.0 or pH 7.4 HBSS with Ca^2+ and Mg^2+ (GIBCO), supplemented with 15 mM HEPES, 2 μM Fluo-4 AM (Invitrogen) and 1.5 mM probenecid ([…] to prevent Fluo-4 efflux) as described previously ([Pera et al., 2018]). Indicated peptides were pipetted using an automated system and emission signal was recorded at 525 nm after excitation at 485 nm using Flex Station III (Molecular Devices). Ca^2+ mobilization responses were determined by subtracting basal fluorescence from the net peak of agonist-induced fluorescence. Ionomycin (1 μM) was used to calculate the maximum Ca^2+ signal to normalize peptide-mediated responses.

GPR68 [1] = target: T2, GPR68 (Homo sapiens, UniProt Q15743); assay: Real-time receptor internalization (TR-FRET), concentration-response; type: cell-based; set-up: hIL-2Ra signal peptide (N); expressed in transfected cells; conditions: GPR68; real-time internalization; mean, SEM and n (3)
Method: 48 hr prior to parallel assaying, SNAP-tagged oGPCR cells were plated (10,000 cells/well) in fibronectin-coated 384-well Epic biosensor microplates (Corning) and poly-D-lysine coated white 384-well plates (for internalization assays). SNAP- GLP-1 receptor was plated alongside orphan receptor cells as an internal assay control for internalization assays. Receptor-expression was induced with 0.1 μg/ml doxycycline.
A TR-FRET real-time internalization assay was used to examine peptide-dependent changes in orphan receptor localization as described previously ([Foster and Bräuner-Osborne, 2018]). Surface-expressed SNAP-tagged receptors were labeled with a cell-impermeable luminescent terbium cryptate (100 nM SNAP Lumi4-Tb; Cisbio, France) for 1 hr at 37°C. Cells were washed to remove excess terbium and incubated with fluorescein-O-acetic acid (100 μM; Sigma Aldrich) for 5 min at 37°C. Peptides were added as for DMR assays, and internalization responses were recorded for 60 min at 37°C using an EnVision 2104 Multimode plate reader (PerkinElmer). 100 nM GLP-1 was used as a positive control for SNAP-GLP1R internalization. Real-time internalization responses were calculated based on TR-FRET (excitation 340 nm; emission 520 nm and 615 nm), and were expressed as the ratio between donor (terbium) and acceptor (fluorescein) emission. For peptide screening analysis (both DMR and internalization assays), we calculated the area under the curve from the real-time traces. As the magnitude of the responses was variable between orphan receptor targets, particularly for the SNAP-tag based internalization assay where the signal is dependent on receptor surface expression, the AUC values were normalized to their respective plate averages and expressed as fold change. Validation experiments for receptor internalization were performed as above. Internalization data was processed in MS-Excel and area under the curve was used to generate concentration-response curves using GraphPad Prism 7.0. Data represent mean ± standard error of the mean (SEM) from at least 3 biologically independent experiments.
Target sequence in this assay (Q15743 2-365 limits assumed): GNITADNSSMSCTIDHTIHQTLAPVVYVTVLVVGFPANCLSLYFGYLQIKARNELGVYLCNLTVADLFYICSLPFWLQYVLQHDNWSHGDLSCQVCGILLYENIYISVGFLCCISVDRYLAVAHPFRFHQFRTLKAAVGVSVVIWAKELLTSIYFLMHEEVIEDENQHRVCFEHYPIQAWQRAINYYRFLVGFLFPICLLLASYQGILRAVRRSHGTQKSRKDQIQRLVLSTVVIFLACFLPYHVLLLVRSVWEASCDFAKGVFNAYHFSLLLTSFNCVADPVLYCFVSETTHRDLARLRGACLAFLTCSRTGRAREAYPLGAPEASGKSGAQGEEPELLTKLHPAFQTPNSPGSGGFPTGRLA

GPR68 [2] = target: T2, GPR68; assay: Dynamic mass redistribution (DMR), concentration-response; type: cell-based; set-up: hIL-2Ra signal peptide (N); expressed in transfected cells; conditions: GPR68; dynamic mass redistribution, concentration-response; mean, SEM and n (3-4)
Procedure, shortened: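 Doxycycline-induced (0.1 μg/ml) SNAP-tagged receptors in TREx 293 cells, equilibrated 90 min at 22°C in HEPES-buffered HBSS, pH 7.4, with 0.1% DMSO. Peptide-evoked optical wavelength shift recorded for 60 min at 22°C, buffer/solvent corrected and quantified as area under the curve. Mean ± SEM of at least 3 independent experiments.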
Target sequence in this assay (Q15743 2-365 limits assumed): as above

GPR68 [3] = target: T2, GPR68; assay: GloSensor cAMP assay (Gs), allosteric operational model fitting; type: cell-based; set-up: expressed in transfected cells; host or cells: HEK293T, transient (PEI), co-transfected with GloSensor cAMP plasmid; conditions: GPR68; GloSensor cAMP; mean, SEM and n (4)
Method: GPR68-mediated cAMP signaling was measured using GloSensor cAMP assays as published previously ([Huang et al., 2015], [Yu et al., 2019]) with modifications as indicated below. Calcium- and magnesium-free HBSS was supplemented with different organic buffer reagents for different pH solutions, 20 mM 2-(N-morpholino)ethanesulfonic acid (MES, Alfa Aesar) for pH 6.00 – 6.70, 20 mM 4-(2-hydroxyethyl)-1-piperazineethanesulfonic acid (HEPES, Fisher) for pH 6.80 – 8.20, and 20 mM (tris(hydroxymethyl)methylamino)propanesulfonic acid (TAPS) for pH 8.30 – 8.60. The phosphodiesterase (PDE) inhibitor Ro 20-1724 (10 μM final, Cayman Chemical) was included in pH buffers to eliminate potential effect of PDE […]. HEK293T cells were transfected with a modified polyethylenimine (PEI, Polysciences) transfection method ([Longo et al., 2013]). For a 15-cm dish of HEK293T cells with 25 mL growth medium, 8 μg receptor DNA and 8 μg GloSensor DNA (Promega) were mixed in 1 mL of Opti-MEM medium followed by addition of 80 μL PEI reagents. The mixture was added to cells after 20 min incubation at room temperature. Overnight transfected cells were plated in poly-L-lysine (Sigma) coated 384-well white clear bottom plates (Greiner Bio-One, #781098) using DMEM (Corning) + 1% dialyzed FBS (Omega Scientific) for at least 6 h (up to 24 h). Cells were removed of medium before receiving 20 μL/well of 3.5 mM luciferin (Goldbio) prepared in assay buffer (HBSS, 20 mM TAPS, pH 8.40, 10 μM Ro 20-1724) for 1 h at 37°C. Luciferin loading solutions were removed and premixed drug solutions at desired pH conditions were added to cells (25 μL/well). Luminescence was measured 25-30 min after drug application. Results were normalized (basal and maximum responses in the absence of modulator were set to be 0 and 100%) and pooled for analysis using GraphPad Prism.
All of the other parameters, including allosteric affinity cooperativity (α), allosteric modulator binding affinity KB, orthosteric agonist (protons) efficacy τA, system maximal response, and slope factor n were all globally shared for all datasets for each modulator. […] We therefore used an allosteric index, log(αβ/KB) ([Kenakin, 2017a]), which contains both allosteric binding affinity and cooperativity, to quantify the overall allosteric activity.
Target sequence in this assay (Q15743 whole entry): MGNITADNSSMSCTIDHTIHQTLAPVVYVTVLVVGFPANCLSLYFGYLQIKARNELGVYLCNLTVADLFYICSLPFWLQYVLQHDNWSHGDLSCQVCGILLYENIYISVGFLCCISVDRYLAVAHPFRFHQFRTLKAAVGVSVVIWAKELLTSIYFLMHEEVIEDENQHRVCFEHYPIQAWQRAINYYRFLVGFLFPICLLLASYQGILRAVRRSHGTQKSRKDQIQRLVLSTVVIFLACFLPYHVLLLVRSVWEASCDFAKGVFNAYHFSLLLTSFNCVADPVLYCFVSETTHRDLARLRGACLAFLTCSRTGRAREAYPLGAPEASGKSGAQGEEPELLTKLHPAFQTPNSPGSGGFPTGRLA

MRGPRX2 = target: T3, MRGPRX2 (Homo sapiens, UniProt Q96LB1); assay: β-arrestin recruitment (Tango), known peptide receptors; type: cell-based; conditions: mean, n = 3
T3 construct: host or cells: HTLA cells (HEK293-derived)
T3 sequence (Q96LB1 1-330): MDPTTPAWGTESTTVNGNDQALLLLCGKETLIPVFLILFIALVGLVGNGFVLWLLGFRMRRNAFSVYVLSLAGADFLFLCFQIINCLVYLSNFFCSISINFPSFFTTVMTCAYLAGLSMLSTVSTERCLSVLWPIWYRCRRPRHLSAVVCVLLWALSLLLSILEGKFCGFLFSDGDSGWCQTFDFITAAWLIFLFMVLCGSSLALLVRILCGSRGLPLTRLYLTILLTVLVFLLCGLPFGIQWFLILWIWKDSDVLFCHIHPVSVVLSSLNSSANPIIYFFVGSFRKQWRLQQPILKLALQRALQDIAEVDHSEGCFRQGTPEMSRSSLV

MAS1 = target: T4, MAS1 (Homo sapiens, UniProt P04201); assay: β-arrestin recruitment (Tango), indicative pairing; type: cell-based; conditions: mean, n = 3
T4 construct: host or cells: HTLA cells (HEK293-derived)
T4 sequence (P04201 1-325): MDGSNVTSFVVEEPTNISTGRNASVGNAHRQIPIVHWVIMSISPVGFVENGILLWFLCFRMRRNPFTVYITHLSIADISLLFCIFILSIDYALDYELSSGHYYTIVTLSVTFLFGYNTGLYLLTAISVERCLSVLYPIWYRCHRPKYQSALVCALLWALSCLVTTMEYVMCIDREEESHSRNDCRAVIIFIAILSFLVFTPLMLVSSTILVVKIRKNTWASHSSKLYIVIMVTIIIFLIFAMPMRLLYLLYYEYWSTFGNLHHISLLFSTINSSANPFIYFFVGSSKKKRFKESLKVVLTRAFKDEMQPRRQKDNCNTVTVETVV
Method: The peptide library was additionally screened against 120 GPCR targets in parallel, including all available orphan receptors and 27 known class A peptide receptors using the Tango assay platform ([Kroeze et al., 2015]). Briefly, HTLA cells (a HEK293 cell line stably expressing a tTA-dependent luciferase reporter and a β-arrestin2-TEV fusion gene) were plated 10,000 cells/well in poly-L-lysine–coated clear-bottom white 384-well plates in DMEM supplemented with 10% FBS, 100 U/ml penicillin and 100 μg/ml streptomycin, 2 μg/ml puromycin and 100 μg/ml hygromycin B. 24 hr later, cells were transfected with Tango GPCR constructs using the calcium phosphate method ([Jordan et al., 1996]). The next day, culture medium was changed to DMEM + 1% dFBS and 10 μM peptides were added for overnight stimulation. Bright-Glo solution (Promega) was incubated for 15–20 min at room temperature, and luminescence was counted using a Trilux luminescence counter (Wallac).
For subsequent peptide validation experiments using Tango assays, HTLA cells were transiently transfected in 10 cm dishes with the receptor of interest using polyethylenimine (PEI) ([Longo et al., 2013]). After 24 hr, 25,000 cells/well were plated in clear bottom, white-walled 384-well plates. Assays were performed as described above, with luminescence measured using an EnSpire 2300 Multimode plate reader (PerkinElmer). Luminescence counts were exported into Excel and were analyzed using GraphPad Prism 7.

[4] = system: 120 GPCR targets, including all available orphan receptors and 27 known class A peptide receptors; assay: Peptide library screen, β-arrestin recruitment (Tango, fold change, 10 μM); type: cell-based, human; conditions: for Active at: (activity in b-arrestin recruitment assays): Tango, receptor(s) at which the known library peptide was active, among its known GPCR target(s), validated pairings; for Confirmation of known target in Tango: repeat hitters of the peptide library screen, the value names the known receptor(s) confirmed in the β-arrestin recruitment (Tango) screen
Procedure, shortened: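 HTLA cells (HEK293 with tTA-dependent luciferase and β-arrestin2-TEV) transiently transfected with Tango GPCR constructs, then stimulated overnight with 10 μM peptides in 1% dFBS medium. Luciferase luminescence read after 15–20 min Bright-Glo incubation at room temperature.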

T1 sequence (Q15743 whole entry): as the sequence (Q15743 whole entry) above

Molecule: CC[C@H](C)[C@H](NC(=O)[C@H](CCCNC(=N)N)NC(=O)[C@H](C)NC(=O)CNC(=O)[C@H](CCCCN)NC(=O)[C@H](CCCNC(=N)N)NC(=O)[C@@H](NC(=O)[C@H](C)NC(=O)[C@@H]1CSSC[C@H](NC(=O)[C@H](CCSC)NC(=O)[C@@H]2CCCN2C(=O)[C@@H](NC(=O)[C@H](CCC(N)=O)NC(=O)CNC(=O)[C@@H](N)Cc2ccc(O)cc2)C(C)C)C(=O)N[C@@H](CC(=O)O)C(=O)N[C@@H](C)C(=O)NCC(=O)N[C@@H](CCC(=O)O)C(=O)N[C@@H](CCC(N)=O)C(=O)N1)C(C)C)C(N)=O [139 original] (H-YGQVPMCDAGEQCAVRKGARI-NH2; disulfide 7-13; N-terminus assumed)
- Emax (HA-OGR1 (GPR68); read-out: Calcium mobilization assays Emax (% ionomycin)): 73.1%
- EC50 (HA-OGR1 (GPR68); read-out: Calcium mobilization assays pEC50 (converted)): 7.08 µM
- Internalization assays Emax (AUC) (GPR68 [1]): 9.4
- DMR assays Emax (peak or AUC) (GPR68 [2]): 944453

Molecule: CC[C@H](C)[C@H](NC(=O)[C@H](CCCNC(=N)N)NC(=O)[C@H](C)NC(=O)CNC(=O)[C@H](CCCCN)NC(=O)[C@H](CCCNC(=N)N)NC(=O)[C@@H](NC(=O)[C@H](C)NC(=O)[C@@H]1CSSC[C@H](NC(=O)[C@H](CCSC)NC(=O)[C@@H]2CCCN2C(=O)[C@@H](NC(=O)[C@H](CCC(N)=O)NC(=O)CNC(=O)[C@@H](N)Cc2ccc(O)cc2)C(C)C)C(=O)N[C@@H](CC(=O)O)C(=O)N[C@@H](C)C(=O)NCC(=O)N[C@@H](CCC(=O)O)C(=O)N[C@@H](CCC(N)=O)C(=O)N1)C(C)C)C(N)=O [139 resynthesized] (H-YGQVPMCDAGEQCAVRKGARI-NH2; disulfide 7-13; N-terminus and C-terminus assumed)
- GloSensor cAMP assays Emax (fold change) (GPR68 [3]): 25.2 fold change
- Internalization assays Emax (AUC) (GPR68 [1]): 13.6
- DMR assays Emax (peak or AUC) (GPR68 [2]): 749669

Molecule: AGCKNFFWKTFTSC (disulfide) [Peptide 103]
- Emax, Tango (fold over basal) (MRGPRX2): 6.6 fold over basal
- pEC50, Tango (fold over basal) (MRGPRX2): 4.98
- pEC50, Tango (fold over basal) (MAS1): 4.33
- Active at: (activity in b-arrestin recruitment assays) [4]: SST2
- Confirmation of known target in Tango [4]: SST2

Molecule: DRMPCRNFFWKTFSSCK (disulfide) [Peptide 121]
- pEC50, Tango (fold over basal) (MAS1): 4.96
- Confirmation of known target in Tango [4]: SST2

Molecule: KPLRKDENGTSVAEYPMSASQSNKGVDVNNAVV [Peptide 193]
- Emax, Tango (fold over basal) (MAS1): 1.3 fold over basal
- pEC50, Tango (fold over basal) (MAS1): 9.32

Molecule: YGGFLRRIRPKLKWDNQ [Peptide 119]
- pEC50, Tango (fold over basal) (MAS1): 5.04
- Active at: (activity in b-arrestin recruitment assays) [4]: kappa
- Confirmation of known target in Tango [4]: kappa, mu
